Measured values reported in article PMC6801739, “Antitumor Activity of a Novel Tyrosine Kinase Inhibitor AIU2001 Due to Abrogation of the DNA Damage Repair in Non-Small Cell Lung Cancer Cells” (International Journal of Molecular Sciences, 2019).

Legend:
FLT3 (ITD) = FLT3 (ITD) (Homo sapiens, UniProt P36888, ITD); experiment: In vitro kinase assay, IC50 (Reaction Biology Corp.); format: biochemical
c-KIT (V560G) [1] = biological target: T1, c-KIT (V560G) (Homo sapiens, UniProt P10721, V560G); experiment: as above; format: biochemical
T1 construct: purchased Eurofins Pharma Discovery (KinaseProfiler); IC50 values by Reaction Biology Corp

AMPKα1 = biological target: T2, AMPKα1 (Homo sapiens, UniProt Q13131); experiment: Kinase profiling at 10 μM (Eurofins); format: biochemical; conditions: read-out: Inhibitory activity
T2 construct: purchased Eurofins Pharma Discovery (KinaseProfiler); IC50 values by Reaction Biology Corp

CDK1/cyclinB = biological target: T3, CDK1/cyclinB (Homo sapiens, UniProt P06493); experiment: Kinase profiling at 10 μM (Eurofins); format: biochemical; conditions: read-out: Inhibitory activity
T3 construct: purchased Eurofins Pharma Discovery (KinaseProfiler); IC50 values by Reaction Biology Corp

CDK5/p35 = biological target: T4, CDK5/p35 (Homo sapiens, UniProt Q00535); experiment: Kinase profiling at 10 μM (Eurofins); format: biochemical; conditions: read-out: Inhibitory activity
T4 construct: purchased Eurofins Pharma Discovery (KinaseProfiler); IC50 values by Reaction Biology Corp

c-KIT (V560G) [2] = biological target: T1, c-KIT (V560G); experiment: Kinase profiling at 10 μM (Eurofins); format: biochemical; conditions: read-out: Inhibitory activity
DAPK1 = biological target: T5, DAPK1 (Homo sapiens, UniProt P53355); experiment: Kinase profiling at 10 μM (Eurofins); format: biochemical; conditions: read-out: Inhibitory activity
T5 construct: purchased Eurofins Pharma Discovery (KinaseProfiler); IC50 values by Reaction Biology Corp

FGFR2 = biological target: T6, FGFR2 (Homo sapiens, UniProt P21802); experiment: Kinase profiling at 10 μM (Eurofins); format: biochemical; conditions: read-out: Inhibitory activity
T6 construct: purchased Eurofins Pharma Discovery (KinaseProfiler); IC50 values by Reaction Biology Corp

IKKα = biological target: T7, IKKα (Homo sapiens, UniProt O15111); experiment: Kinase profiling at 10 μM (Eurofins); format: biochemical; conditions: read-out: Inhibitory activity
T7 construct: purchased Eurofins Pharma Discovery (KinaseProfiler); IC50 values by Reaction Biology Corp

PKCα = biological target: T8, PKCα (Homo sapiens, UniProt P17252); experiment: Kinase profiling at 10 μM (Eurofins); format: biochemical; conditions: read-out: Inhibitory activity
T8 construct: purchased Eurofins Pharma Discovery (KinaseProfiler); IC50 values by Reaction Biology Corp

SRC (1-530) = biological target: T9, SRC (1-530) (Homo sapiens, UniProt P12931); experiment: Kinase profiling at 10 μM (Eurofins); format: biochemical; conditions: read-out: Inhibitory activity
T9 construct: purchased Eurofins Pharma Discovery (KinaseProfiler); IC50 values by Reaction Biology Corp

TrkA = biological target: T10, TrkA (Homo sapiens, UniProt P04629); experiment: Kinase profiling at 10 μM (Eurofins); format: biochemical; conditions: read-out: Inhibitory activity
T10 construct: purchased Eurofins Pharma Discovery (KinaseProfiler); IC50 values by Reaction Biology Corp

HCT116 p53+/+ cells = experiment: MTT cell viability assay; format: cell-based, human; conditions: 5 days
Method: (§1) Cell viability was assessed using the MTT colorimetric assay. Cells (1 × 10^3 cells/well) were seeded into 96-well plates and treated with the various concentrations of each compound or combination of two compounds. After five days of treatment, 10 μL MTT (0.5 mg/mL) was added, and further incubated for 3 h. After removal of the supernatant, the resultant pellet was dissolved in DMSO. The absorbance of the resultant formazan was measured at 540 nm using a plate reader (Multiskan EX; ThermoLabsystems, Waltham, MA, USA).
(§2) Supplementary Figure 1. AIU2001 inhibited the proliferation of various cancer cells. (A and B)
(§3) Human AML cells (Molm-13 and MV4-11; A) and human colorectal cancer (CRC) cells
(§4) (HCT116/p53+/+ and HCT116/p53-/-; B) were treated with AIU2001 at the indicated concentrations for
(§5) 5 days and viable cells were evaluated using the CCK-8 assay for AML cells and the MTT assay for
(§6) CRC cells. *p < 0.05, **p < 0.01, ***p < 0.001 versus respective vehicle controls.
(§7) (also on this page, place not known: ca ncer fo r 02468 Cell viability (%) 0 1 Cell viability (%) *** *** ***)

HCT116 p53-/- cells = experiment: MTT cell viability assay; format: cell-based, human; conditions: 5 days
Method: as §1, §2, §3, §4, §5, §6, §7

A549 cells [3] = experiment: Immunoblot of cleaved caspase-3 and PARP-1; format: cell-based, human; conditions: 48 h
Method: (§8) Cell lysates were prepared by extracting proteins with TNN buffer (40 mM Tris-Cl pH 8.0, 0.2% NP-40, 120 mM NaCl) or radioimmunoprecipitation assay (RIPA) lysis buffer (Millipore, Billerica MA, USA) supplemented with a protease inhibitor cocktail (Thermo Fisher Scientific, Rockford, IL, USA). Equal amounts of proteins were separated using SDS-PAGE on 8–13% gels, and transferred to nitrocellulose membranes (Bio-Rad, Hercules, CA, USA). The membranes were blocked with 5% skim milk in Tris-buffered saline-Tween 20 (TBST) (150 mM NaCl, 10 mM Tris, 0.2% Tween20), followed by overnight incubation with primary antibodies at 4 °C. The blots were developed using peroxidase-conjugated secondary antibody and the immunoreactive proteins were visualized using enhanced chemiluminescence (ECL) reagents, according to the manufacturer’s recommendations (Amersham, GE Healthcare, Buckingamshire, UK). The protein bands were visualized using a digital imaging system (ImageQuant LAS 4000 mini; GE Healthcare, UK). The protein levels were analyzed using Image J software (National Institutes of Health, Bethesda, MD, USA). Experiments were repeated at least thrice.

H1299 cells [4] = experiment: Immunoblot of cleaved caspase-3 and PARP-1; format: cell-based, human; conditions: 48 h
Method: as §8

A549 cells [5] = experiment: qPCR of DNA damage repair genes and STAT5 mRNA; format: cell-based, human; conditions: 24 h
Source text: (§9) RNA was extracted using TRIzol® RNA isolation reagent (ThermoFisher Scientific). RNA was reverse-transcribed into cDNA using the M-MLV reverse transcriptase (Enzynomics, Daejeon, Korea) and RNase inhibitor (Promega, Madison, WI, USA). The sequence of the primers targeting human BRCA1, BRCA2, RAD51, BARD1, XRCC6, and XRCC5 are as follows: BRCA1 sense 5′-[…]-3′, BRCA1 antisense 5′-[…]-3′, BRCA2 sense 5′-[…]-3′, BRCA2 antisense 5′-[…]-3′, RAD51 sense 5′-[…]-3′, RAD51 antisense 5′-[…]-3′, BARD1 sense 5′-[…]-3′, BARD1 antisense 5′-[…]-3′, XRCC6 sense 5′-[…]-3′, XRCC6 antisense 5′-[…]-3′, XRCC5 sense 5′-[…]-3′,and XRCC5 antisense 5′-[…]-3′. β-actin was used as a housekeeping gene for normalization. The cDNA was quantified using real-time PCR with SYBR Green/fluorescein qPCR master mix (ThermoScientific, Carlsbad, CA, USA) on a Lightcycler 96 system (Roche Diagnostics, Mannheim, Germany) according to the manufacturer’s protocol.

H1299 cells [6] = experiment: qPCR of DNA damage repair genes and STAT5 mRNA; format: cell-based, human; conditions: 24 h
Source text: as §9

A549 cells [7] = experiment: Clonogenic survival assay with γ-radiation; format: cell-based, human
Method: (§10) Cells were seeded on 60-mm culture dishes at various densities and then treated with DMSO or 2 μM AIU2001. After 2 h, the cells were treated with the indicated doses of ^137Cs γ-radiation. After 10 days, the colonies were fixed and stained with 1.5% methylene blue (Sigma Aldrich) in methanol solution. Colonies containing > 50 cells were counted. The dose enhancement ratio (DER) was calculated as the dose (Gy) of radiation that yielded a surviving fraction of 0.1 for DMSO-treated cells divided by that dose for AIU2001-treated cells. The experiment was performed in triplicate.

H1299 cells [8] = experiment: Clonogenic survival assay with γ-radiation; format: cell-based, human
Method: as §10

T1 sequence (P10721 26-976 V560G): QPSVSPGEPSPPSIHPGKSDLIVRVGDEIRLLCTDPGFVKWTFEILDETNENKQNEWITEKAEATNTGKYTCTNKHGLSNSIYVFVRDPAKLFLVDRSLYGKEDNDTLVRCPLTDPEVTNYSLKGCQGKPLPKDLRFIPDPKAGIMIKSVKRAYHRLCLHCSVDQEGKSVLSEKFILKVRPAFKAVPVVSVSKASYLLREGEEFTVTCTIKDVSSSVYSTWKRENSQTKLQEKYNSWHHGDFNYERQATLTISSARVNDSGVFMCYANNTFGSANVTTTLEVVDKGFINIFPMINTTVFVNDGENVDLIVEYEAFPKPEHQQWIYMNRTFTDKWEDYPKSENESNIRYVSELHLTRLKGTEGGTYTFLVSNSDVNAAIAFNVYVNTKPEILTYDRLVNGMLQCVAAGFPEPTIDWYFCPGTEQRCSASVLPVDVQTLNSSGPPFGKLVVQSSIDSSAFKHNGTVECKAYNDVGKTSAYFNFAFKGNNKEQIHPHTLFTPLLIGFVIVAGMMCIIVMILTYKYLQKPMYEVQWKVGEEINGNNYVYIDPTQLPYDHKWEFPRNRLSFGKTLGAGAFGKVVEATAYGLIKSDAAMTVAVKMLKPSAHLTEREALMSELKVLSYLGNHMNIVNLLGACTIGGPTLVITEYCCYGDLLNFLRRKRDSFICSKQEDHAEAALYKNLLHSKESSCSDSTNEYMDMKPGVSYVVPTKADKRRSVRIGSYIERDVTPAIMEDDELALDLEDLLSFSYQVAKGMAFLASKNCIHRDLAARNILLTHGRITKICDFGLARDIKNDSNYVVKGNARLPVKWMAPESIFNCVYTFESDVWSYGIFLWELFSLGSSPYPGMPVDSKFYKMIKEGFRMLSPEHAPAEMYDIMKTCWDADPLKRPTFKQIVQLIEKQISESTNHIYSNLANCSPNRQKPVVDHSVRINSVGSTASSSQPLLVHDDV
Chain of FLT3 (ITD) (P36888 564-993, stated change not applied): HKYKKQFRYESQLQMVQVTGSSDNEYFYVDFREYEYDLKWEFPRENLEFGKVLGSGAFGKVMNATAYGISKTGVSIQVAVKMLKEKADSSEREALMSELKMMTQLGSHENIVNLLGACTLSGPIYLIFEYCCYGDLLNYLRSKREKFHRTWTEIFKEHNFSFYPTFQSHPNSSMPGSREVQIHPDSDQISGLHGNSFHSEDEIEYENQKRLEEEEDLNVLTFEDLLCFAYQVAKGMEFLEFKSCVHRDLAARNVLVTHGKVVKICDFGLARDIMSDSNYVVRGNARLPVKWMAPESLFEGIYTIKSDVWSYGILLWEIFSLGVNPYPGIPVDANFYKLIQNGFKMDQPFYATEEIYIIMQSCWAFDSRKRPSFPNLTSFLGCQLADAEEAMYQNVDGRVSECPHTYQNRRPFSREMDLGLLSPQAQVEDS
T2 sequence (Q13131 whole entry): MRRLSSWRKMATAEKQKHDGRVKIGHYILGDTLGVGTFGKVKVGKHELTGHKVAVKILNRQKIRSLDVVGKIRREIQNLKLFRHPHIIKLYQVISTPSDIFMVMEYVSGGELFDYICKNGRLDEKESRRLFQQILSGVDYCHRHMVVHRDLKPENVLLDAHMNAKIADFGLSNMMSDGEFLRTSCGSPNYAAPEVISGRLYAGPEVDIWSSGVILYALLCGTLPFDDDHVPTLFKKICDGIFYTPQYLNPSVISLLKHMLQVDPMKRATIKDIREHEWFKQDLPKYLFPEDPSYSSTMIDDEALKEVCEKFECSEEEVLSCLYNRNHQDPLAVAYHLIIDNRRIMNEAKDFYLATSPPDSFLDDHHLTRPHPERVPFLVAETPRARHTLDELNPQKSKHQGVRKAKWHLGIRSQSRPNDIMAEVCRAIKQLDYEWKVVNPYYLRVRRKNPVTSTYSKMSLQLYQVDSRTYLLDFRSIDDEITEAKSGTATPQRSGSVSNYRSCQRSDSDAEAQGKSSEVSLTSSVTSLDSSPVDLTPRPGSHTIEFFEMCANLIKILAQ
T2 sequence (Q9Y478 whole entry partner): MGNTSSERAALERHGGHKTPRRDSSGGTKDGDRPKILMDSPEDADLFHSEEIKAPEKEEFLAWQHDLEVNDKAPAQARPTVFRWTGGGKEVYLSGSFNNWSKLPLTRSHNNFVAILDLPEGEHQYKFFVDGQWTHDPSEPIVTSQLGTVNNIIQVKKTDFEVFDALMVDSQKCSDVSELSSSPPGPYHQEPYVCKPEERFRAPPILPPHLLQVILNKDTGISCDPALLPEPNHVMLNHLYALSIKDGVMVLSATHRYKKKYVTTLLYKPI
T2 sequence (P54619 whole entry partner): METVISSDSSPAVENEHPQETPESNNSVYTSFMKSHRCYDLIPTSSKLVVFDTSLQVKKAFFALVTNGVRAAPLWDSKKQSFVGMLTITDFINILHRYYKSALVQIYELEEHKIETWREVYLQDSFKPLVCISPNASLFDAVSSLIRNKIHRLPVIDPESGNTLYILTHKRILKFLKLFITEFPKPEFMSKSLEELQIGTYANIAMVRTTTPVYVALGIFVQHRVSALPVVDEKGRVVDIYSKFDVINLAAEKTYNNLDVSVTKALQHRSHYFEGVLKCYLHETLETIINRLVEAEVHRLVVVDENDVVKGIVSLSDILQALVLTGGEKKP
T9 sequence (P12931 1-530 limits assumed): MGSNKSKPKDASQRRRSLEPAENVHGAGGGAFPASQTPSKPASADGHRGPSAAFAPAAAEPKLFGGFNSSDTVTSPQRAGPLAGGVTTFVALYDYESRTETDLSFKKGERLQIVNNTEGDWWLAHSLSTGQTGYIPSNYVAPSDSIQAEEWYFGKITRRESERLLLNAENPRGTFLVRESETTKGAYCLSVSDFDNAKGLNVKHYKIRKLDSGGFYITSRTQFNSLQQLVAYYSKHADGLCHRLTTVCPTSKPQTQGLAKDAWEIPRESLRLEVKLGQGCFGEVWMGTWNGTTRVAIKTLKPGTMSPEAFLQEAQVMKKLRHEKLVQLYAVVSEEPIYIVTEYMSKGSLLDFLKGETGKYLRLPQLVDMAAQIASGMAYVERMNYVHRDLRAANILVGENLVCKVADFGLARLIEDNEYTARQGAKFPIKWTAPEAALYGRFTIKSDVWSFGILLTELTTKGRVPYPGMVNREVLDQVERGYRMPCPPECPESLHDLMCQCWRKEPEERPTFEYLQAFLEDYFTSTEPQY
T3 sequence (P06493 whole entry): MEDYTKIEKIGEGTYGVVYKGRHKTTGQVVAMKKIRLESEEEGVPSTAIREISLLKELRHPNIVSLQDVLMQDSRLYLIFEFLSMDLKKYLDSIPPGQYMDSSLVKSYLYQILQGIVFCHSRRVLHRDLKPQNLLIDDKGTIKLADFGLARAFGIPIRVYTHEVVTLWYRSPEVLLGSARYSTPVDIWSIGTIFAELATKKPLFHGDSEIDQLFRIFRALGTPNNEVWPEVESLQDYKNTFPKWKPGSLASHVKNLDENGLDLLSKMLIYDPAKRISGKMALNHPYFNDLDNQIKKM
T3 sequence (P14635 whole entry partner): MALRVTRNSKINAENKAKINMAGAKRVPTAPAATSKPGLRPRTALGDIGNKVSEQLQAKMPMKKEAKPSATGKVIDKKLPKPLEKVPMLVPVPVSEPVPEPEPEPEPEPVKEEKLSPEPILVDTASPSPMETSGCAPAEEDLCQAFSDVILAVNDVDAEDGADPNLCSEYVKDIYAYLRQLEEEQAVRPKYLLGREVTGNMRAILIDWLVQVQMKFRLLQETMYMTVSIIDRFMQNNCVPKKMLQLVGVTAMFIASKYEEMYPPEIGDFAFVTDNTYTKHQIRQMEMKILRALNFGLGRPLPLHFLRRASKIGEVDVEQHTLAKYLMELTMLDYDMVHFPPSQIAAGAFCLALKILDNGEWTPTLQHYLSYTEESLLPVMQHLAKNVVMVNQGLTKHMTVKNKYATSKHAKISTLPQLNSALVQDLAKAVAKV

## Brc1ccc(-c2cnc(Nc3cccc4ccccc34)o2)cc1 [AIU2001, 5-(4-bromophenyl)-N-(naphthalen-1-yl) oxazol-2-amine]
FLT3 (ITD)
  IC50: 63.2 nM
c-KIT (V560G) [1]
  IC50: 53.4 nM
AMPKα1
  inhibition at 10 µM: 25%
CDK1/cyclinB
  inhibition at 10 µM: 38%
CDK5/p35
  inhibition at 10 µM: 58%
c-KIT (V560G) [2]
  inhibition at 10 µM: ≥ 75%
DAPK1
  inhibition at 10 µM: 12%
FGFR2
  inhibition at 10 µM: 1%
IKKα
  inhibition at 10 µM: 7%
PKCα
  inhibition at 10 µM: 9%
SRC (1-530)
  inhibition at 10 µM: 10%
TrkA
  inhibition at 10 µM: 40%
HCT116 p53+/+ cells
  Growth inhibition: inhibited the growth
HCT116 p53-/- cells
  Growth inhibition: inhibited the growth
A549 cells [3]
  Cleavage of caspase-3 and PARP-1: increased cleavage
H1299 cells [4]
  Cleavage of caspase-3 and PARP-1: increased cleavage
A549 cells [5]
  Expression level of STAT5 mRNA: downregulated
  mRNA levels of HR (BRCA1, BRCA2, BARD1, RAD51) and NHEJ (XRCC5, XRCC6) genes: reduced the mRNA levels
H1299 cells [6]
  Expression level of STAT5 mRNA: downregulated
  mRNA levels of HR (BRCA1, BRCA2, BARD1, RAD51) and NHEJ (XRCC5, XRCC6) genes: reduced the mRNA levels
A549 cells [7]; 2 μM, 2 h before IR, 10 days
  Dose enhancement ratio (DER) at surviving fraction of 0.1 over DMSO-treated cells: 1.33
A549 cells [7]; clonogenic survival
  Radiosensitivity: radiosensitized
H1299 cells [8]; 2 μM, 2 h before IR, 10 days
  Dose enhancement ratio (DER) at surviving fraction of 0.1 over DMSO-treated cells: 1.15
H1299 cells [8]; clonogenic survival
  Radiosensitivity: radiosensitized
